# Measured values from US20240381872A1, “SUBSTITUTED 2,3-DIHYDRO[1,3]THIAZOLO[4,5-B]PYRIDINES, SALTS THEREOF AND THEIR USE AS HERBICIDALLY ACTIVE SUBSTANCES” (BAYER AKTIENGESELLSCHAFT, priority 2021, published 2024).
# How the values were obtained:
# Assay type in all cases: in vivo
# [1] = tested on: Polygonum convolvulus (POLCO); assay: Herbicidal pre-emergence action, section C (Table C7); conditions: visual grading after ca. 3 weeks; for pest or weed control at 320 g/ha: application rate 320 g/ha
# Description: (§1) Seeds of mono- and dicotyledonous weed plants and crop plants were sown, in plastic or organic planting pots, in sandy loam and covered with soil. The compounds according to the invention, formulated in the form of wettable powders (WP) or as emulsifiable concentrates (EC), were applied to the surface of the covering soil as aqueous suspension or emulsion, with the addition of 0.5% of an additive, at an application rate of 600 l of water/ha (converted). Following treatment, the pots were placed in a greenhouse and kept under optimum growth conditions for the test plants. The visual grading of the damage to the test plants was carried out after ca. 3 weeks in comparison to untreated controls (herbicidal effect in percent (%): 100% effect=plants have died off, 0% effect=as control plants).
# Glycine max (GLXMA) = assay: Post-emergence effects on crop plants, section F (Table F4); conditions: application rate 80 g/ha; for percent crop plant damage at 80 g/ha: Glycine max, 504 h, read-out: post-emergence activity against GLXMA in %; for post-emergence activity against GLXMA in %: crop plant damage
# Summary of the method: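 Post-emergence greenhouse test: crops grown 2 to 3 weeks in sandy loam, sprayed at 320 g/ha or less in 600 l water/ha with 0.5% additive. Injury rated visually as percent relative to controls roughly three weeks later.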
# Veronica persica (VERPE) = assay: Herbicidal pre-emergence action, section A (Table A10); conditions: for pest or weed control at 320 g/ha: application rate 320 g/ha
# Summary of the method: (§2)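 Test plants, grown from seed sown in sandy loam with two species per pot, were treated pre-emergence by spraying the covering soil with WP or EC formulations at 600 l/ha water plus 0.5% additive. Visual grading of percent damage followed at ca. 3 weeks.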
# [2] = tested on: Echinochloa crus-galli (ECHCG); assay: Herbicidal pre-emergence action, section C (Table C3); conditions: visual grading after ca. 3 weeks vs untreated controls; for pest or weed control at 80 g/ha: application rate 80 g/ha
# Summary of the method: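 Compounds applied as aqueous WP or EC preparations (0.5% additive, 600 l water/ha) onto soil covering freshly sown seeds in sandy loam. Herbicidal effect is visually estimated % damage after about 3 weeks, where 100% means plants died off and 0% matches controls.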
# Kochia scoparia (KCHSC) [3] = assay: Herbicidal post-emergence action, section B (Table B4); conditions: application rate 320 g/ha, visual rating about 3 weeks after treatment vs untreated controls; for pest or weed control at 320 g/ha: Bassia scoparia, post-emergence, 504 h, read-out: post-emergence activity against KCHSC in %
# Summary of the method: (§3)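 Scores are visual % activity relative to untreated plants (0% = like control, 100% = dead), taken about 3 weeks after spraying. Compounds, as WP or EC in water with 0.5% additive at 600 L/ha, went onto one-leaf-stage weeds grown from seed in sandy loam under greenhouse conditions.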
# [4] = tested on: Abutilon theophrasti (ABUTH); assay: Herbicidal post-emergence action, section B (Table B1); conditions: application rate 1280 g/ha, rated visually after about 3 weeks; for pest or weed control at 1280 g/ha: Abutilon theophrasti, 504 h, read-out: post-emergence activity against ABUTH in %
# Summary of the method: as §3
# Poa annua (POAAN) = assay: Herbicidal pre-emergence action, section A (Table A7); conditions: visual grading after ca. 3 weeks vs untreated controls
# Summary of the method: as §2
# Kochia scoparia (KCHSC) [5] = assay: Herbicidal pre-emergence action, section A (Table A4); conditions: visual grading after ca. 3 weeks vs untreated controls
# Summary of the method: as §2
# Lolium rigidum (LOLRI) = assay: Herbicidal pre-emergence action, section C (Table C5); conditions: visual grading after ca. 3 weeks
# Description: as §1
# [6] = tested on: Abutilon theophrasti (ABUTH); assay: Herbicidal post-emergence action, section E (Table E1); conditions: application rate 320 g/ha; assessed visually after ca. 3 weeks
# Description: Seeds of mono- and dicotyledonous weed plants and crop plants were sown, in plastic or organic planting pots, in sandy loam, covered with soil and grown in a greenhouse under controlled growth conditions. 2 to 3 weeks after sowing, the test plants were sprayed in the single-leaf stage. The compounds according to the invention, formulated in form of wettable powders (WP) or as emulsifiable concentrates (EC), were sprayed onto the green plant parts as aqueous suspension or emulsion, with the addition of 0.5% of an additive, at an application rate of 600 l of water/ha (converted). The test plants were placed in the greenhouse for ca. 3 weeks under optimum growth conditions, and then the effect of the preparations was assessed visually in comparison with untreated controls (herbicidal effect in percent (%): 100% effect=plants have died off, 0% effect=as control plants).
# [7] = Veronica persica, 504 h, read-out: pre-emergence activity against VERPE in %
# [8] = Poa annua, pre-emergence, 504 h, application rate 1280 g/ha, read-out: pre-emergence activity against POAAN in %
# [9] = Bassia scoparia, pre-emergence, 504 h, application rate 320 g/ha, read-out: pre-emergence activity against KCHSC in %
# [10] = Fallopia convolvulus, pre-emergence, 504 h, read-out: pre-emergence activity against POLCO in %
# [11] = Lolium rigidum, pre-emergence, 504 h, application rate 320 g/ha, read-out: pre-emergence activity against LOLRI in %
# [12] = Echinochloa crus-galli, pre-emergence, 504 h, read-out: pre-emergence activity against ECHCG in %
structure (smiles),measurement,setting,value
"Clc1ccccc1-c1nc2c(cc1Br)SCN2 [Example I-041, 6-bromo-5-(2-chlorophenyl)-2,3-dihydro[1,3]thiazolo[4,5-b]pyridine]",pest or weed control at 80 g/ha,"[1]; Fallopia convolvulus, pre-emergence, 504 h, application rate 80 g/ha, read-out: pre-emergence activity against POLCO in %",80%
same,percent crop plant damage at 80 g/ha,Glycine max (GLXMA),0%
same,pest or weed control at 320 g/ha,Veronica persica (VERPE); [7],90%
same,pest or weed control at 320 g/ha,"[2]; Echinochloa crus-galli, pre-emergence, 504 h, application rate 320 g/ha, read-out: pre-emergence activity against ECHCG in %",100%
same,pest or weed control at 320 g/ha,Kochia scoparia (KCHSC) [3],90%
same,pest or weed control at 1280 g/ha,[4],90%
same,pest or weed control at 1280 g/ha,Poa annua (POAAN); [8],100%
same,pest or weed control at 320 g/ha,Kochia scoparia (KCHSC) [5]; [9],90%
"Cc1cc2c(nc1-c1cccc(F)c1F)NCS2 [Example I-029, 5-(2,3-difluorophenyl)-6-methyl-2,3-dihydro[1,3]thiazolo[4,5-b]pyridine]",pest or weed control at 320 g/ha,[1]; [10],80%
same,pest or weed control at 1280 g/ha,"Veronica persica (VERPE); Veronica persica, 504 h, application rate 1280 g/ha, read-out: pre-emergence activity against VERPE in %",90%
same,pest or weed control at 320 g/ha,Lolium rigidum (LOLRI); [11],100%
same,pest or weed control at 80 g/ha,[2]; [12],100%
same,pest or weed control at 320 g/ha,Kochia scoparia (KCHSC) [3],90%
same,pest or weed control at 1280 g/ha,[4],90%
same,pest or weed control at 1280 g/ha,Poa annua (POAAN); [8],100%
same,pest or weed control at 320 g/ha,Kochia scoparia (KCHSC) [5]; [9],100%
COC(=O)CCC(=O)N1CSc2cc(Cl)c(-c3ccccc3F)nc21 [Example I-003],post-emergence activity against GLXMA in %,Glycine max (GLXMA),0%
same,pre-emergence activity against VERPE in %,Veronica persica (VERPE); application rate 1280 g/ha,90%
same,pre-emergence activity against ECHCG in %,[2]; application rate 320 g/ha,80%
same,post-emergence activity against KCHSC in %,Kochia scoparia (KCHSC) [3],90%
same,pre-emergence activity against POAAN in %,Poa annua (POAAN); application rate 1280 g/ha,100%
same,pre-emergence activity against KCHSC in %,Kochia scoparia (KCHSC) [5]; application rate 1280 g/ha,100%
Cc1cc2c(nc1-c1ccccc1F)N(S(=O)(=O)Cc1ccc(F)cc1)CS2 [Example I-122],pre-emergence activity against POLCO in %,[1]; application rate 80 g/ha,80%
same,post-emergence activity against GLXMA in %,Glycine max (GLXMA),10%
same,pre-emergence activity against VERPE in %,Veronica persica (VERPE); application rate 1280 g/ha,90%
same,pre-emergence activity against LOLRI in %,Lolium rigidum (LOLRI); application rate 320 g/ha,100%
same,pre-emergence activity against ECHCG in %,[2]; application rate 320 g/ha,100%
same,post-emergence activity against KCHSC in %,Kochia scoparia (KCHSC) [3],90%
same,post-emergence activity against ABUTH in %,[6],80%
same,post-emergence activity against ABUTH in %,[4],90%
same,pre-emergence activity against POAAN in %,Poa annua (POAAN); application rate 320 g/ha,100%
same,pre-emergence activity against KCHSC in %,Kochia scoparia (KCHSC) [5]; application rate 320 g/ha,90%
CCS(=O)(=O)N1C[S+]([O-])c2cc(C)c(-c3ccccc3C)nc21 (stereo not drawn) [Example I-074],pest or weed control at 320 g/ha,[1]; [10],90%
same,percent crop plant damage at 80 g/ha,Glycine max (GLXMA),0%
same,pest or weed control at 320 g/ha,Veronica persica (VERPE); [7],90%
same,pest or weed control at 80 g/ha,[2]; [12],100%
same,pest or weed control at 320 g/ha,Kochia scoparia (KCHSC) [3],90%
same,pest or weed control at 320 g/ha,"Poa annua (POAAN); Poa annua, pre-emergence, 504 h, application rate 320 g/ha, read-out: pre-emergence activity against POAAN in %",100%
same,pest or weed control at 1280 g/ha,"Kochia scoparia (KCHSC) [5]; Bassia scoparia, pre-emergence, 504 h, application rate 1280 g/ha, read-out: pre-emergence activity against KCHSC in %",100%
"Fc1ccccc1-c1nc2c(cc1Br)SCN2 [Example I-001, 6-bromo-5-(2-fluorophenyl)-2,3-dihydro[1,3]thiazolo[4,5-b]pyridine]",pest or weed control at 320 g/ha,[1]; [10],80%
same,percent crop plant damage at 80 g/ha,Glycine max (GLXMA),20%
same,pest or weed control at 80 g/ha,"Lolium rigidum (LOLRI); Lolium rigidum, pre-emergence, 504 h, application rate 80 g/ha, read-out: pre-emergence activity against LOLRI in %",100%
same,pest or weed control at 80 g/ha,[2]; [12],100%
CCc1ccccc1-c1nc2c(cc1C)[S+]([O-])CN2 (stereo not drawn) [Example I-047],pest or weed control at 320 g/ha,[1]; [10],80%
same,percent crop plant damage at 80 g/ha,Glycine max (GLXMA),0%
same,pest or weed control at 320 g/ha,Lolium rigidum (LOLRI); [11],100%
same,pest or weed control at 320 g/ha,Kochia scoparia (KCHSC) [3],90%
same,pest or weed control at 1280 g/ha,Poa annua (POAAN); [8],100%
